The source of these data is patent publication US6153651A, “Ortho-substituted benzoylguanidines, process for their preparation, their use as a medicament or diagnostic, and medicament comprising them” (Hoechst Aktiengesellschaft, priority 1996, dated 2000).

Where a name gives a salt, the structure may show the parent alone. Bounds are passed on as bounds.

The IC50 is the concentration that inhibits the measured activity by half.

The test has as its target T1, rabbit erythrocyte Na^+ /H^+ exchanger (Oryctolagus cuniculus, UniProt P23791).
T1 construct: endogenous in cells; host or cells: rabbit erythrocytes (whole heparinized blood of cholesterol-fed New Zealand White rabbits, Ivanovas)
In words: Inhibition of the rabbit erythrocyte Na^+ /H^+ exchanger (amiloride-sensitive Na^+ influx, flame photometry). It counts as cell-based, rabbit (New Zealand White). The conditions noted are these: erythrocytes of rabbits fed 2% cholesterol for six weeks; pH 7.4, 37° C., hyperosmolar salt/sucrose medium. From the text:
Inhibition of the rabbit erythrocyte Na^+ /H^+ exchanger New Zealand White rabbits (Ivanovas) were given a standard diet containing 2% cholesterol for six weeks in order to activate Na^+ /H^+ exchange and thus render it possible to use flame photometry to determine the influx of Na+into the erythrocytes by way of Na^+ /H^+ exchange. The blood was withdrawn from the aural arteries and rendered incoagulable by adding 25 IU of potassium heparin. A part of each sample was used for determining the hematocrit in duplicate by means of centrifugation. Aliquots of in each case 100 μl were used to measure the initial content of Na^+ in the erythrocytes.
In order to determine the amiloride-sensitive sodium influx, 100 μl of each blood sample were in each case incubated, at pH 7.4 and 37° C., in 5 ml of a hyperosmolar salt/sucrose medium (mmol/l: 140 NaCl, 3 KCl, 150 sucrose, 0.1 ouabain, 20 tris(hydroxymethyl)aminomethane). After that, the erythrocytes were washed three times with an ice cold solution of MgCl2 /ouabain (mmol/l: 112 MgCl2, 0.1 ouabain) and hemolyzed in 2.0 ml of distilled water. The intracellular content of sodium was determined by flame photometry.
The net influx of Na^+ was calculated from the difference between the initial sodium values and the sodium content of the erythrocytes after incubation. The amiloride-inhibitable sodium influx was obtained from the difference in the sodium content of the erythrocytes after incubation with and without 3×10^-4 mol/l amiloride. The same procedure was used in the case of the novel compounds.

T1 sequence (P23791 whole entry): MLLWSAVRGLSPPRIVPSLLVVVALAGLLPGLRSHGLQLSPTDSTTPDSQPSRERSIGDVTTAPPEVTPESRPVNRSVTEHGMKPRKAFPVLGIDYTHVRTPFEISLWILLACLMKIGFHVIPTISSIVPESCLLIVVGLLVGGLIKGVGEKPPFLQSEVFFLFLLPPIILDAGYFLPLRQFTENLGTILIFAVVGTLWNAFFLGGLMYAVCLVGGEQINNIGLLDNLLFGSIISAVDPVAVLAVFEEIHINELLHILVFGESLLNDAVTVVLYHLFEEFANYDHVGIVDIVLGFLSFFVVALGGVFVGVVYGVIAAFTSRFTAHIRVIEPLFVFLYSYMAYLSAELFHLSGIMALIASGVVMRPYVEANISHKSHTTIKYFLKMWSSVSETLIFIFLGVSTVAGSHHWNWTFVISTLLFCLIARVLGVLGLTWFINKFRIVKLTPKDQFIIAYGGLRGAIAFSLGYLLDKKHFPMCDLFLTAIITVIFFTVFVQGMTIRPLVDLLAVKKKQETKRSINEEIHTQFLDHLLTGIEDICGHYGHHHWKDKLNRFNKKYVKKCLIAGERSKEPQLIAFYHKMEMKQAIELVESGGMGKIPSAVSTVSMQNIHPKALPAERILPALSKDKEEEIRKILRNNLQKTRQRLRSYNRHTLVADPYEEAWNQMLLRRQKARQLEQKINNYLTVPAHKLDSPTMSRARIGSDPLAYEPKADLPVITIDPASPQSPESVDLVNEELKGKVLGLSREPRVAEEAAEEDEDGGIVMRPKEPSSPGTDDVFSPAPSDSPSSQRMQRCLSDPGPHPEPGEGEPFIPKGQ

Turning to `COc1c(C(=O)N=C(N)N)cc(C(C)(C)C)cc1C(C)(C)C` [Example 6, 3,5-Bis-tert-butyl-2-methoxybenzoylguanidine hydrochloride], the IC50 was determined as 1000 nM. For `COc1cc(OC)c(C(F)(F)F)cc1C(=O)N=C(N)N` [Example 7, 2,4-Dimethoxy-5-trifluoromethylbenzoylguanidine hydrochloride] the value was 200 nM; for `COc1cc(C(F)(F)F)cc(C(=O)N=C(N)N)c1OC` [Example 1, 2,3-Dimethoxy-5-trifluoromethylbenzoylguanidine hydrochloride], 53 nM. On to `COc1c(I)cc(C(F)(F)F)cc1C(=O)N=C(N)N` [Example 2, 2-Methoxy-3-iodo-5-trifluoromethylbenzoylguanidine hydrochloride], for which the IC50 was found to be 17 nM. In the case of `COc1cc(C)ccc1C(=O)N=C(N)N` [Example 5, 2-Methoxy-4-methylbenzoylguanidine hydrochloride], the IC50 is above 1000 nM.
